Patent US20160075653A1, “NEMATICIDAL N-(PHENYLCYCLOALKYL)CARBOXAMIDES AND N-(PHENYLCYCLOALKYL)THIOCARBOXAMIDES” (BAYER CROPSCIENCE AKTIENGESELLSCHAFT, priority 2013, published 2016)

Assay: Measurement of log P values by HPLC on reversed phase columns (methods [a] pH 2.3, [b] pH 2.7, [c] pH 7.8)
Format: physicochemical
Conditions: HPLC on reversed phase column, method [b], pH 2.7
Summary of the method: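 Determined per EEC Directive 79/831 Annex V.A8 by reversed-phase HPLC, 10-95% acetonitrile gradient: [a] pH 2.3, 0.1% phosphoric acid; [b] LC-MS, pH 2.7, 0.1% formic acid; [c] LC-MS, pH 7.8, 0.001 molar ammonium hydrogen carbonate. Calibrated with C3-C16 alkan-2-ones by retention-time interpolation.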

Structure (SMILES)	logP
O=C(NC1CCC1c1ccccc1C(F)(F)F)c1nccnc1C(F)(F)F (centres unmarked) [Example 604]	3.18^[b]
O=C(NC1CCC1c1ccccc1C(F)(F)F)c1ncccc1Br (centres unmarked) [Example 605]	3.17^[b]
CC1=C(C(=O)NC2CCC2c2ccccc2C(F)(F)F)S(=O)(=O)CCO1 (centres unmarked) [Example 606]	2.49^[b]
O=C(NC1CCC1c1ccccc1C(F)(F)F)c1nccnc1C(F)(F)F (centres unmarked) [Example 687]	3.31^[b]
O=C(NC1CCC1c1ccccc1C(F)(F)F)c1ncccc1Br (centres unmarked) [Example 691]	3.34^[b]
O=C(NC1CCC1c1ccc(Cl)cc1C(F)(F)F)c1sccc1I (centres unmarked) [Example 710]	4.55^[b]
O=C(NC1CCC1c1ccc(Cl)cc1C(F)(F)F)c1sccc1I (centres unmarked) [Example 711]	4.28^[b]

Same assay, conditions: HPLC on reversed phase column, method [c], pH 7.8

Structure (SMILES)	logP
O=C(NC1CCC1c1ccccc1C(F)(F)F)c1nccnc1C(F)(F)F (centres unmarked) [Example 604]	3.10^[c];
O=C(NC1CCC1c1ccccc1C(F)(F)F)c1ncccc1Br (centres unmarked) [Example 605]	3.10^[c];
CC1=C(C(=O)NC2CCC2c2ccccc2C(F)(F)F)S(=O)(=O)CCO1 (centres unmarked) [Example 606]	2.45^[c];
O=C(NC1CCC1c1ccccc1C(F)(F)F)c1nccnc1C(F)(F)F (centres unmarked) [Example 687]	3.25^[c];
O=C(NC1CCC1c1ccccc1C(F)(F)F)c1ncccc1Br (centres unmarked) [Example 691]	3.27^[c];

Same assay, conditions: HPLC on reversed phase columns, method [b], pH 2.7

Structure (SMILES)	logP
Cn1cc(C(=O)NC2CCC2c2ccc(Cl)cc2C(F)(F)F)c(C(F)F)n1 (centres unmarked) [Example 718]	3.41^[b]
Cn1cc(C(=O)NC2CCC2c2ccc(Cl)cc2C(F)(F)F)c(C(F)F)n1 (centres unmarked) [Example 719]	3.17^[b]
O=C(NC1CCC1c1ccc(Cl)cc1C(F)(F)F)c1cccnc1C(F)(F)F (centres unmarked) [Example 720]	3.60^[b]
O=C(NC1CCC1c1ccc(Cl)cc1C(F)(F)F)c1cccnc1C(F)(F)F (centres unmarked) [Example 721]	3.36^[b]
O=C(NC1CCC1c1ccc(Cl)cc1C(F)(F)F)c1ccccc1Br (centres unmarked) [Example 722]	4.08^[b]
O=C(NC1CCC1c1ccc(Cl)cc1C(F)(F)F)c1ccccc1Br (centres unmarked) [Example 723]	3.80^[b]
O=C(NC1CCC1c1c(Cl)cccc1Cl)c1cccnc1 (centres unmarked) [Example 724]	2.17^[b]
O=C(NC1CCC1c1c(Cl)cccc1Cl)c1cccnc1Cl (centres unmarked) [Example 725]	2.79^[b]
Cn1cc(C(=O)NC2CCC2c2c(Cl)cccc2Cl)c(C(F)F)n1 (centres unmarked) [Example 726]	2.90^[b]
O=C(NC1CCC1c1c(Cl)cccc1Cl)c1c(F)cccc1F (centres unmarked) [Example 727]	3.33^[b]
O=C(NC1CCC1c1c(Cl)cccc1Cl)c1ccccc1 (centres unmarked) [Example 728]	3.30^[b]
O=C(NC1CCC1c1c(Cl)cccc1Cl)c1cccc(Cl)c1 (centres unmarked) [Example 729]	3.87^[b]
Cc1nc(C(F)(F)F)c(C(=O)NC2CCC2c2ccc(Cl)cc2C(F)(F)F)s1 (centres unmarked) [Example 730]	4.03^[b]
Cc1nc(C(F)(F)F)c(C(=O)NC2CCC2c2ccc(Cl)cc2C(F)(F)F)s1 (centres unmarked) [Example 731]	3.75^[b]

Same assay, conditions: HPLC reversed phase, method [b] (pH 2.7)

Structure (SMILES)	logP
O=C(NC1CCC1c1ccccc1Cl)c1ccccc1 (centres unmarked) [Example 447]	3.14^[b]
O=C(NC1CCC1c1ccccc1Cl)c1cccc(Cl)c1 (centres unmarked) [Example 448]	3.36^[b]
O=C(NC1CCC1c1ccccc1Cl)c1ccccc1 (centres unmarked) [Example 449]	2.81^[b]
O=C(NC1CCC1c1ccc(Cl)cc1Cl)c1ccccc1 (centres unmarked) [Example 450]	3.75^[b]
O=C(NC1CCC1c1ccc(Cl)cc1Cl)c1ccc(Cl)cc1 (centres unmarked) [Example 452]	4.33^[b]
O=C(NC1CCC1c1ccc(Cl)cc1Cl)c1ccc(Cl)cc1 (centres unmarked) [Example 453]	3.85^[b]
O=C(NC1CCC1c1ccc(Cl)cc1Cl)c1cccc(Cl)c1 (centres unmarked) [Example 457]	3.87^[b]
O=C(NC1CCC1c1ccccc1C(F)(F)F)c1ncccc1Cl (centres unmarked) [Example 458]	3.22^[b]
O=C(NC1CC1c1ccc(Cl)cc1)c1ccccc1C(F)F (centres unmarked) [Example 459]	2.90^[b]
O=C(NC1CC1c1ccc(Cl)cc1)c1c(F)cccc1Cl (centres unmarked) [Example 463]	2.83^[b]
O=C(NC1CC1c1ccc(Cl)cc1)c1c(F)cccc1I (centres unmarked) [Example 464]	3.02^[b]
O=C(NC1CC1c1ccc(Cl)cc1)c1c(F)cc(F)cc1F (centres unmarked) [Example 466]	2.80^[b]
O=C(NC1CC1c1ccc(Cl)cc1)c1ccccc1[N+](=O)[O-] (centres unmarked) [Example 467]	2.59^[b]
Cn1cc(C(=O)NC2CCC2c2ccc(Cl)cc2Cl)c(C(F)F)n1 (centres unmarked) [Example 468]	3.26^[b]
Cn1cc(C(=O)NC2CCC2c2ccc(Cl)cc2Cl)c(C(F)F)n1 (centres unmarked) [Example 469]	2.95^[b]
O=C(NC1CCC1c1ccc(Cl)cc1Cl)c1cccnc1C(F)(F)F (centres unmarked) [Example 470]	3.45^[b]
O=C(NC1CCC1c1ccc(Cl)cc1Cl)c1ccccc1Br (centres unmarked) [Example 471]	3.92^[b]
O=C(NC1CCC1c1ccc(Cl)cc1Cl)c1ccccc1C(F)(F)F (centres unmarked) [Example 474]	4.02^[b]
O=C(NC1CCC1c1ccc(F)cc1C(F)(F)F)c1cccc(Cl)c1 (centres unmarked) [Example 477]	4.02^[b]
O=C(NC1CCC1c1ccc(F)cc1C(F)(F)F)c1ncc(C(F)(F)F)cc1Cl (centres unmarked) [Example 480]	4.23^[b]
O=C(NC1CCC1c1ccc(F)cc1C(F)(F)F)c1ncc(C(F)(F)F)cc1Cl (centres unmarked) [Example 483]	3.97^[b]
Cn1cc(C(=O)NC2CCC2c2ccc(F)cc2C(F)(F)F)c(C(F)F)n1 (centres unmarked) [Example 484]	3.02^[b]
Cn1cc(C(=O)NC2CCC2c2c(F)cccc2F)c(C(F)F)n1 (centres unmarked) [Example 486]	2.42^[b]
O=C(NC1CC1c1ccccc1Cl)c1cccnc1C(F)(F)F (centres unmarked) [Example 499]	2.62^[b]
O=C(NC1CC1c1ccccc1C(F)(F)F)c1cccnc1C(F)(F)F (centres unmarked) [Example 500]	2.79^[b]
O=C(NC1CCC1c1c(F)cccc1F)c1ccccc1 (centres unmarked) [Example 514]	2.75^[b]

Same assay, conditions: HPLC reversed phase, method [c] pH 7.8

Structure (SMILES)	logP
O=C(NC1CC1c1ccc(Cl)cc1)c1ccccc1C(F)F (centres unmarked) [Example 459]	2.88^[c];
O=C(NC1CC1c1ccc(Cl)cc1)c1c(F)cccc1Cl (centres unmarked) [Example 463]	2.75^[c];
O=C(NC1CC1c1ccc(Cl)cc1)c1c(F)cccc1I (centres unmarked) [Example 464]	2.99^[c];
O=C(NC1CC1c1ccc(Cl)cc1)c1c(F)cc(F)cc1F (centres unmarked) [Example 466]	2.78^[c];
O=C(NC1CC1c1ccc(Cl)cc1)c1ccccc1[N+](=O)[O-] (centres unmarked) [Example 467]	2.45^[c];

Same assay, conditions: reversed phase HPLC columns, pH 2.7, HPLC on reversed phase column, method [b], pH 2.7; read-out: logP

Structure (SMILES)	chromatographic logP
O=C(N[C@@H]1CC[C@H]1c1ccccc1C(F)(F)F)c1cccnc1Cl [Example 620]	2.79

Same assay, conditions: reversed phase HPLC columns, pH 2.7, HPLC on reversed phase columns, method [b] (pH 2.7); read-out: logP

Structure (SMILES)	chromatographic logP
O=C(N[C@@H]1CC[C@H]1c1ccc(Cl)cc1C(F)(F)F)c1cccnc1 [Example 732]	2.74
O=C(N[C@@H]1CC[C@@H]1c1c(Cl)cccc1Cl)c1ccccc1[N+](=O)[O-] [Example 733]	3.08
O=C(N[C@@H]1CC[C@@H]1c1c(Cl)cccc1Cl)c1nccnc1Cl [Example 734]	3.07
O=C(N[C@@H]1CC[C@@H]1c1c(Cl)cccc1Cl)c1ccccc1Br [Example 735]	3.6
O=C(N[C@@H]1CC[C@@H]1c1c(Cl)cccc1Cl)c1ccccc1C(F)(F)F [Example 736]	3.71
O=C(N[C@@H]1CC[C@@H]1c1c(Cl)cccc1Cl)c1ccccc1I [Example 737]	3.72
O=C(N[C@@H]1CC[C@@H]1c1c(Cl)cccc1Cl)c1ccc(Cl)cc1 [Example 738]	3.36
O=C(N[C@@H]1CC[C@@H]1c1ccc(Cl)cc1C(F)(F)F)c1cccnc1Cl [Example 739]	3.09
Cc1nc(C(F)(F)F)c(C(=O)N[C@@H]2CC[C@@H]2c2c(Cl)cccc2Cl)s1 [Example 740]	3.6

Same assay, conditions: reversed phase HPLC columns, pH 2.7, HPLC reversed phase, method [b] (pH 2.7); read-out: logP

Structure (SMILES)	chromatographic logP
O=C(N[C@@H]1CC[C@H]1c1ccc(Cl)cc1Cl)c1cccc(Cl)c1 [Example 454]	4.4
O=C(N[C@@H]1CC[C@@H]1c1ccccc1Cl)c1ccc(Cl)cc1 [Example 455]	3.35
O=C(N[C@@H]1CC[C@H]1c1ccccc1C(F)(F)F)c1ccccc1I [Example 497]	3.61
O=C(N[C@@H]1CC[C@H]1c1ccccc1C(F)(F)F)c1ccccc1Cl [Example 498]	3.42
